The text below walks through data of patent US10738062B2, “Chromane-substituted tetracyclic compounds and uses thereof for the treatment of viral diseases” (Merck Sharp & Dohme Corp., priority 2016, dated 2020).

What all share (parameters): species or system Hepatitis C virus
Assay [1] relates to HCV replicon 1A. The experiment in a line: Cell-based HCV replicon assay (Replicon Assay A), replicon 1A. The following applies: replicon RNA by real time PCR, day 3. As for the experimental part:
(§1) To measure cell-based anti-HCV activity of compounds of the present invention, two complimentary assays were employed using various replicons. In the first assay (“Replicon Assay A”), replicon cells were seeded at 2000 cells/well in 384-well 384-well flat bottom tissue culture treated clear bottom plate (Corning 3707) in the presence of the test compound. Various concentrations of test compound, typically in 10 serial dilutions, were added to the assay mixture, with the starting concentration ranging from 333.3 nM to 1.667 nM. The final concentration of DMSO was 0.5%. Fetal bovine serum was 5%, in the assay media. Cells were harvested on day 3 by removing media and washing the cells with a suitable wash buffer. The cells were lysed with the addition of 1× Qiagen lysis buffer (Cat #1062731). The replicon RNA level was measured using real time PCR (TaqMan® EZ RT-PCR, Applied Biosystems 403028) with the following primers and probes: […]
(§2) Cyclophilin RNA was used as endogenous control and was amplified in the same reaction as NS5B (multiplex PCR). The real-time RT-PCR reactions were run on ABI PRISM 7900HT Sequence Detection System using the following program: 50° C. for 2 minutes, 60° C. for 30 minutes, 95° C. for 5 minutes, 40 cycles of 94° C. for 20 sec, 55° C. for 1 minutes.
(§3) The amount of HCV replicon RNA per cell was quantified using a linear regression curve for a known nanogram (ng) amount of HCV replicon total RNA. This was established by plotting the Cycle Threshold values (Ct) from the Neo probe and primer set versus the log (ng) for each HCV replicon total RNA standard. The amount of HCV RNA for each replicon sample was calculated by taking the sample's Ct value, minus the line intercept, divided by the slope of the line. Similarly, the amount of Cyclophilin mRNA per cell was also quantified using a linear regression curve for a known nanogram (ng) amount of HCV replicon total RNA. Again, this was established by plotting the Cycle Threshold values (Ct) from the Cyclophilin probe and primer set versus the log (ng) for each HCV replicon total RNA standard.
(§4) The real-time RT-PCR reactions were run on ABI PRISM 7900HT or Viia7 Sequence Detection System using the following program: 48° C. for 30 minutes, 95° C. for 10 minutes, 40 cycles of 95° C. for 15 sec, 60° C. for 1 minutes. The 50% effective concentration (EC50) was the drug concentration necessary to achieve an increase in the cycle threshold (CT) of 1 over the projected baseline CT.
(§5) Data was obtained for various compounds of the present invention using the methods described in the Example above, and is presented in the table immediately below. EC50 data for replicons 1A, 1AY93H and 2B were obtained using Replicon Assay A and EC50 data for replicon 1B was obtained using Replicon Assay B.
(In general: Replicon systems follow genome replication, usually without infectious particles.)

Assay [2] concerns HCV replicon 1B. The experiment in a line: Cell-based HCV replicon assay (Replicon Assay B), replicon 1B. The following applies: replicon RNA by real-time PCR, 3 days. How it is done:
In an alternate assay (“Replicon Assay B”), 1000 cells were seeded per well in a 384-well collagen coated black plate from Greiner bio-one (Cat #781946) in 5% FBS. Inhibitors of this invention were added at 24 h post-seeding, and the plates were incubated for 3 days. Cells were subsequently lysed with Qiagen lysis buffer (Cat #1062731) to extract the RNA. HCV replicon RNA level was measured by real-time PCR using the RNA-to-CT kit from Applied Biosystem (Cat #4392656) and genotype-specific primers and probes. The amplicon was located within NS5B. […] (SEQ. ID NO. 2); the probe sequence was FAM-labeled […] (SEQ. ID NO. 3).
The real-time RT-PCR reactions were run on ABI PRISM 7900HT or Viia7 Sequence Detection System using the following program: 48° C. for 30 minutes, 95° C. for 10 minutes, 40 cycles of 95° C. for 15 sec, 60° C. for 1 minutes.
EC50 data for replicons 1A, 1AY93H and 2B were obtained using Replicon Assay A and EC50 data for replicon 1B was obtained using Replicon Assay B.

The test system of assay [3] is HCV replicon 2B. The experiment in a line: Cell-based HCV replicon assay (Replicon Assay A), replicon 2B. The following applies: replicon RNA by real time PCR, day 3. As for the experimental part:
as §1, §2, §3, §4, §5

For assay [4], the system named is HCV replicon 1A Y93H. The experiment in a line: Cell-based HCV replicon assay (Replicon Assay A), replicon 1AY93H. The following applies: replicon RNA by real time PCR, day 3. How it is done:
as §1, §2, §3, §4, §5

[5] abbreviates: read-out: EC50 replicon 2B, Replicon Assay A.
[6] abbreviates: read-out: EC50 replicon 1A Y93H, Replicon Assay A.

Read-outs that look alike come from different tables or passages of the source.

The EC50 is the concentration giving half of the maximal effect. Take `COC(=O)N[C@H](C(=O)N1CCC[C@H]1c1ncc(-c2cc(F)c3c(c2)OC(c2ccc4c(c2)OCCC4C)n2c-3cc3cc(-c4cnc([C@@H]5CCCN5C(=O)[C@@H](NC(=O)OC)C(C)C)[nH]4)ccc32)[nH]1)C(C)C` (single isomer, unassigned) [Compound 8]: the EC50 in assay [1] worked out at 0.0021 nM; in assay [2] (Hepatitis C virus, 72 h) it was 0.0011 nM; in assay [3] (setting [5]), 0.041 nM; in assay [4] (setting [6]), 0.038 nM.

On to `COC(=O)N[C@H](C(=O)N1CCC[C@H]1c1ncc(-c2cc(F)c3c(c2)OC(c2ccc4c(c2)OCCC4C)n2c-3cc3cc(-c4cnc([C@@H]5CCCN5C(=O)[C@@H](NC(=O)OC)C(C)C)[nH]4)ccc32)[nH]1)C(C)C` (single isomer, unassigned) [Compound 10], for which the 50% effective concentration (EC50) is 0.0024 nM in assay [1], 0.0012 nM in assay [2], 0.041 nM in assay [3] (setting [5]) and 0.039 nM in assay [4] (setting [6]).

For `COC(=O)N[C@H](C(=O)N1CCC[C@H]1c1ncc(-c2cc(F)c3c(c2)OC(c2ccc4c(c2)OC(C)CC4)n2c-3cc3cc(-c4cnc([C@@H]5CCCN5C(=O)[C@@H](NC(=O)OC)C(C)C)[nH]4)ccc32)[nH]1)C(C)C` (single isomer, unassigned) [Compound 13], the 50% effective concentration (EC50) came to 0.0023 nM in assay [1]; 0.0032 nM in assay [2] (Hepatitis C virus, 72 h); 0.144 nM in assay [3] (setting [5]); 0.106 nM in assay [4] (setting [6]).

For the molecule `COC(=O)N[C@H](C(=O)N1CCC[C@H]1c1ncc(-c2cc(F)c3c(c2)OC(c2ccc4c(c2)OC(C)CC4)n2c-3cc3cc(-c4cnc([C@@H]5CCCN5C(=O)[C@@H](NC(=O)OC)C(C)C)[nH]4)ccc32)[nH]1)C(C)C` (single isomer, unassigned) [Compound 14], the EC50 in assay [1] turned out to be 0.0018 nM; in assay [2], 0.0026 nM; in assay [3] (setting [5]), 0.163 nM; in assay [4] (setting [6]), 0.119 nM.

Take `COC(=O)N[C@H](C(=O)N1CCC[C@H]1c1ncc(-c2cc(F)c3c(c2)OC(c2ccc4c(c2)OCCC4(F)F)n2c-3cc3cc(-c4cnc([C@@H]5CCCN5C(=O)[C@@H](NC(=O)OC)C(C)C)[nH]4)ccc32)[nH]1)C(C)C` (single isomer, unassigned) [Compound 20]: the EC50 stood at 0.0013 nM in assay [1]; 0.0014 nM in assay [2] (Hepatitis C virus, 72 h); 0.04 nM in assay [3] (setting [5]); 0.067 nM in assay [4] (setting [6]).

`COC(=O)N[C@H](C(=O)N1CCC[C@H]1c1ncc(-c2cc(F)c3c(c2)OC(c2ccc4c(c2)OC(C)(C)C4)n2c-3cc3cc(-c4cnc([C@@H]5CCCN5C(=O)[C@@H](NC(=O)OC)C(C)C)[nH]4)ccc32)[nH]1)C(C)C` (single isomer, unassigned) [Compound 28]: the half-maximal effective concentration (EC50) in assay [1] is 0.0017 nM; in assay [2] (Hepatitis C virus, 72 h) it was 0.0021 nM; in assay [3] (setting [5]) it was 0.105 nM; in assay [4] (setting [6]), 0.032 nM.

Take `COC(=O)N[C@H](C(=O)N1CCC[C@H]1c1ncc(-c2cc(F)c3c(c2)OC(c2ccc4c(c2)OCCC4)n2c-3cc3cc(-c4cnc([C@@H]5CCCN5C(=O)[C@@H](NC(=O)OC)C5CCOCC5)[nH]4)ccc32)[nH]1)C(C)C` (single isomer, unassigned) [Compound 31]: the EC50 amounted to 0.0015 nM in assay [1] (Hepatitis C virus, 72 h); 0.0022 nM in assay [2] (Hepatitis C virus, 72 h); 0.098 nM in assay [3] (setting [5]); 0.322 nM in assay [4] (setting [6]).

Consider `COC(=O)NC(C(=O)N1CCC[C@H]1c1ncc(-c2ccc3c(c2)cc2n3C(c3ccc4c(c3)CCCO4)Oc3cc(-c4cnc([C@@H]5CCCN5C(=O)[C@@H](NC(=O)OC)C(C)C)[nH]4)cc(F)c3-2)[nH]1)C1C[C@@H](C)O[C@@H](C)C1` (single isomer, unassigned) [Compound 73], for which the concentration for a half-maximal effect (EC50) in assay [1] (Hepatitis C virus, 72 h) came to 0.0031 nM; in assay [3] (setting [5]) it was 0.791 nM; in assay [4] (setting [6]) it was 1.36 nM.

With `COC(=O)NC(C(=O)N1CCC[C@H]1c1ncc(-c2ccc3c(c2)cc2n3C(c3ccc4c(c3)CCCO4)Oc3cc(-c4cnc([C@@H]5CCCN5C(=O)[C@@H](NC(=O)OC)C(C)C)[nH]4)cc(F)c3-2)[nH]1)C1C[C@@H](C)O[C@@H](C)C1` (single isomer, unassigned) [Compound 74], the EC50 in assay [1] stood at 0.0025 nM; in assay [3] (setting [5]) it was 0.234 nM; in assay [4] (setting [6]) it was 0.091 nM.

As for `COC(=O)NC(C(=O)N1CCC[C@H]1c1ncc(-c2ccc3c(c2)cc2n3C(c3ccc4c(c3)OCCC4)Oc3cc(-c4cnc([C@@H]5CCCN5C(=O)[C@@H](NC(=O)OC)C(C)C)[nH]4)cc(F)c3-2)[nH]1)C1C[C@@H](C)O[C@@H](C)C1` (single isomer, unassigned) [Compound 75], the EC50 in assay [1] (Hepatitis C virus, 72 h) worked out at 0.0018 nM; in assay [3] (setting [5]), 0.296 nM; in assay [4] (setting [6]), 1.27 nM.

On to `COC(=O)NC(C(=O)N1CCC[C@H]1c1ncc(-c2ccc3c(c2)cc2n3C(c3ccc4c(c3)OCCC4)Oc3cc(-c4cnc([C@@H]5CCCN5C(=O)[C@@H](NC(=O)OC)C(C)C)[nH]4)cc(F)c3-2)[nH]1)C1C[C@@H](C)O[C@H](C)C1` (single isomer, unassigned) [Compound 77], for which the concentration for a half-maximal effect (EC50) was 0.0015 nM in assay [1] (Hepatitis C virus, 72 h); 0.099 nM in assay [3] (setting [5]); 0.496 nM in assay [4] (setting [6]).

With `COC(=O)NC(C(=O)N1[C@@H]2C[C@@H]2C[C@H]1c1ncc(-c2ccc3c(c2)cc2n3C(c3ccc4c(c3)OCCC4)Oc3cc(-c4cnc([C@@H]5CCCN5C(=O)[C@@H](NC(=O)OC)C(C)C)[nH]4)cc(F)c3-2)[nH]1)C1CCO[C@H](C)C1` (single isomer, unassigned) [Compound 81], the EC50 worked out at 0.002 nM in assay [1] (Hepatitis C virus, 72 h); 0.27 nM in assay [3] (setting [5]); 0.188 nM in assay [4] (setting [6]).

Take `COC(=O)NC(C(=O)N1CCC[C@H]1c1ncc(-c2ccc3c(c2)cc2n3C(c3ccc4c(c3)CCCO4)Oc3cc(-c4cnc([C@@H]5CCCN5C(=O)[C@@H](NC(=O)OC)C(C)C)[nH]4)cc(C)c3-2)[nH]1)C1C[C@@H](C)O[C@@H](C)C1` (single isomer, unassigned) [Compound 83]: the EC50 in assay [1] (Hepatitis C virus, 72 h) was 0.0039 nM; in assay [3] (Hepatitis C virus, 72 h, read-out: EC50 replicon 2B, Replicon Assay A), 0.16 nM; in assay [4] (Hepatitis C virus, 72 h, read-out: EC50 replicon 1A Y93H, Replicon Assay A), 0.594 nM.

Turning to `COC(=O)NC(C(=O)N1CCC[C@H]1c1ncc(-c2ccc3c(c2)cc2n3C(c3ccc4c(c3)CCCO4)Oc3cc(-c4cnc([C@@H]5CCCN5C(=O)[C@@H](NC(=O)OC)C(C)C)[nH]4)cc(C)c3-2)[nH]1)C1C[C@@H](C)O[C@@H](C)C1` (single isomer, unassigned) [Compound 84], the concentration giving a half-maximal response (EC50) in assay [1] is 0.002 nM; in assay [3] (setting [5]) it was 0.193 nM; in assay [4] (setting [6]), 0.674 nM.

For `COC(=O)NC(C(=O)N1CCC[C@H]1c1ncc(-c2ccc3c(c2)cc2n3C(c3ccc4c(c3)OCCC4)Oc3cc(-c4cnc([C@@H]5CCCN5C(=O)[C@@H](NC(=O)OC)C(C)C)[nH]4)cc(C)c3-2)[nH]1)C1C[C@@H](C)O[C@@H](C)C1` (single isomer, unassigned) [Compound 85], the EC50 in assay [1] (Hepatitis C virus, 72 h) turned out to be 0.0027 nM; in assay [3] (setting [5]) it was 0.07 nM; in assay [4] (setting [6]) it was 0.575 nM.

As for `COC(=O)N[C@H](C(=O)N1CCC[C@H]1c1ncc(-c2cc(F)c3c(c2)OC(c2ccc4c(c2)OCCC4)n2c-3c(F)c3cc(-c4cnc([C@@H]5CCCN5C(=O)[C@@H](NC(=O)OC)C5CCOCC5)[nH]4)ccc32)[nH]1)C(C)C` (single isomer, unassigned) [Compound 91], the EC50 turned out to be 0.0011 nM in assay [1] (Hepatitis C virus, 72 h); 0.123 nM in assay [3] (setting [5]); 0.893 nM in assay [4] (setting [6]).
